Structures are written as SMILES.

Assay [1] has as its target T1, Cytosol Progesterone Receptor of the Estrogen-primed Immature Rabbit Uterus (Oryctolagus cuniculus, UniProt P06186).
T1 construct: cytosol progesterone receptor of the estrogen-primed immature rabbit uterus; tissue Dutchland Laboratories, Inc., Denver, Pa (animals); host or cells: uterus cytosol of estradiol-treated immature female New Zealand White rabbits
T1 sequence (P06186 1-930): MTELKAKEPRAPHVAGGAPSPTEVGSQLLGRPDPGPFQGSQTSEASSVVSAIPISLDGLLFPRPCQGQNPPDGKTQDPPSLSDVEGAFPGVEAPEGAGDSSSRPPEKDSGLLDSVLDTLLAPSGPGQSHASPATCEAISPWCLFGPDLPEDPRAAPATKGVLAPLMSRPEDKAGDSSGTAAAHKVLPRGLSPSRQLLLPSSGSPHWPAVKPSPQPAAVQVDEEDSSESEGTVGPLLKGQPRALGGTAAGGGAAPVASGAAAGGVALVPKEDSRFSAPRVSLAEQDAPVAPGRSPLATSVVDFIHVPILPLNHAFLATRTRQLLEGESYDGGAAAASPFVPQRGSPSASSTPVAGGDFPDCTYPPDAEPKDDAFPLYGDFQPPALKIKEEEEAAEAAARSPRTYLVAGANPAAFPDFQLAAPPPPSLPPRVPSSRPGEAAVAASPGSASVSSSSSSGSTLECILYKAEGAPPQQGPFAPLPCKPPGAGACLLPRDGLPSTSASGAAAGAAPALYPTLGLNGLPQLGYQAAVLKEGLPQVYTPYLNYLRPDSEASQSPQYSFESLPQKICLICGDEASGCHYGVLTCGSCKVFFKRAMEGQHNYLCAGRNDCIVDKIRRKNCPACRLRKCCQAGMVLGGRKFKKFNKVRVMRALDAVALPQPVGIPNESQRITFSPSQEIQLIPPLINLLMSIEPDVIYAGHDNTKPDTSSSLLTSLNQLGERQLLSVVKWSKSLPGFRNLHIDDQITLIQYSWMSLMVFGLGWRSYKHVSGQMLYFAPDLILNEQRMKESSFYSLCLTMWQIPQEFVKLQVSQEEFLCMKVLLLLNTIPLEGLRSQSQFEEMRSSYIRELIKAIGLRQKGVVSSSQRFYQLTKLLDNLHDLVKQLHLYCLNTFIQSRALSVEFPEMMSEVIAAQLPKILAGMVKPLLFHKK
Nature of the assay: Relative binding affinity for progesterone receptor (competition with 3H-progesterone). More on the design: species or system rabbit (New Zealand White). The method, then:
RBA values recorded at 0° C. after short incubation times (e.g., 2 hr) mainly reflect differences in the association rate constants of the competing ligands, whereas those measured after long incubation times (e.g., 16 to 24 hr) and/or higher temperatures predominantly are influenced by differences in the dissociation rate constants of the competing ligands. RBA's determined after short incubation times primarily reflect the association of the competitor compared to the natural hormone. Conversely, RBA's measured after long incubation times reflect the dissociation rate of the competitor compared to the natural hormone.
The assay components are combined, allowed to equilibrate, and unbound radioactivity removed by charcoal adsorption.
Animal species. Immature female New Zealand White rabbits weighing 0.8 to 1.0 kg (Dutchland Laboratories, Inc., Denver, Pa).
Pretreatment. Subcutaneous treatment with 15 μg 17β-estradiol/0.6 ml sesame oil each morning (0830 to 0930 hr) for three days. Animals sacrificed 24 hr after final injection.
Tissue. Uterus; each uterus weighed about 1.0 g and two or three uteri were pooled for each assay.
Buffer. (A) 0.01M TES, pH 7.4, 1 mM EDTA, 0.012M thioglycerol and 30% glycerol for cytosol preparation and ^3 H-steroid, unlabeled hormone and compound solutions. (B) 0.01M TES, pH 7.4, 1 mM EDTA and 0.012M thioglycerol for charcoal solution.
Homogenization. Five or six 5-second bursts with 30 second cooling periods between bursts using Brinkman Polytron Pt. 10 at 3.5 rheostat setting.
Temperature. 0°-4° C. for all steps.
Centrifugation. 45,000 rpm for 1 hr, 50 Ti rotor, Beckman L8-80 ultracentrifuge.
Incubation. 16-18 hr at 4°-6° C.
Concentations. 1×10^-10 M to 1×10^-5 M (7 concentrations).
Method. Charcoal adsorption method used to remove unbound radioactivity. Five-tenths ml of dextran-coated charcoal (0.5% Norit A and 0.05% dextran T-70) added to all tubes except total radioactivity tubes (0.5 ml buffer [B] added), tubes vortexed 3-5 sec, allowed to sit for 10 minutes and centrifuged 10 minutes at 2000 rpm in Beckman TJ-6 centrifuge at 0°-4° C.
Data Interpretation. […] The relative binding affinity (RBA) of each compound was calculated by using the following equation. [formula] where

The subject of assay [2] is uterine endometrium of estrone-primed immature rabbits. Nature of the assay: Clauberg assay (progestational activity, McPhail). It counts as in vivo, rabbit (New Zealand White). The settings on record: for McPhail Index (0-4) (X ± S.D.): 0 none, 4 maximal.
In assay [3] the test system is androgen target organs of castrate immature male rats. The experiment in a line: Anti-androgenic activity in the castrate immature rat assay. The format is in vivo. The settings on record: testosterone alone sc. The method, then: The oral anti-androgenic activity of 6-methyl-6-dehydro-17α-ethynylprogesterone was evaluated in the castrate immature male rat assay [Lerner et al., Proc. Soc. […] The assay is briefly described in the footnotes to Table 11.
*This assay employs castrate immature rats. For methods refer to Lerner,
L. J., A. Bianchi and A. Borman, Proc. Soc.
**Groups of rats (7/group) were given daily injections of 0.3 ml sesame
oil (control) or compound (in 0.3 ml sesame oil) for 7 days. Some groups
also concurrently received progestational compounds by the sc or oral
route of administration in order to evaluate antiandrogenic activity. One
day after the final doses, the animals were sacrificed and the androgen
target organs indicated were weighed.
***Statistically significant (p < 0.05) lower organ weights versus the
testosterone, sc, (400 μg/rat/day) group as determined by Analysis of
Variance coupled with Duncan's Multiple Range Test.

[4] abbreviates: Assay 2, 16-18 hour incubation, progesterone = 100, 5α-dihydro-17α-ethynyl: lot 1.
The mark [5] stands for this setting: Assay 3, 16-18 hour incubation, progesterone = 100, 5α-dihydro-17α-ethynyl: lot 1.
[6] abbreviates: Assay 4, 16-18 hour incubation, progesterone = 100.
Where [7] appears, read: Assay 5, 16-18 hour incubation, progesterone = 100.

`C#C[C@]1(C(C)=O)CC[C@H]2[C@@H]3CC[C@H]4CC(=O)CC[C@]4(C)[C@H]3CC[C@@]21C` [5α-Dihydro-17α-ethynylprogesterone, 17α-Ethynyl-5α-pregnane-3,20-dione]: in assay [1] (16 to 18 hour incubation at 0° C., spurious value 11 excluded), the “RBA, mean of assays (X±S.D.)” value amounted to 154±23. Further, the RBA in assay [1] (Assay 1, 16-18 hour incubation, progesterone = 100, 5α-dihydro-17α-ethynyl: lot 1) came out at 11%; in assay [1] (setting [4]) it was 186%; in assay [1] (setting [5]), 144%; in assay [1] (Assay 3, lot 2, 16-18 hour incubation, progesterone = 100) it was 133%; in assay [1] (two-hour incubation at 0° C.), 211. The “Uterine Weight (X ± S.D.)” value in assay [2] (oral, 100 μg/rabbit daily) turned out to be 1.00 g; in assay [2] (oral, 200 μg/rabbit daily) it was 1.30 ± 0.22 g; in assay [2] (oral, 400 μg/rabbit daily), 1.10 ± 0.08 g; in assay [2] (sc, 5 μg/rabbit daily), 0.90 ± 0.29 g; in assay [2] (sc, 10 μg/rabbit daily) it was 1.33 ± 0.09 g; in assay [2] (sc, 20 μg/rabbit daily), 1.03 ± 0.17 g. In addition, the “Uterine Weight (X ± S.D.)” value is on record as 1.18 ± 0.25 g in assay [2] (sc, 100 μg/rabbit daily); 1.15 ± 0.07 g in assay [2] (sc, 200 μg/rabbit daily); 1.24 ± 0.09 g in assay [2] (sc, 400 μg/rabbit daily). In addition, the “McPhail Index (0-4) (X ± S.D.)” value turned out to be 0 in assay [2] (oral, 100 μg/rabbit daily); 0.04 ± 0.06 in assay [2] (oral, 200 μg/rabbit daily); 0.04 ± 0.06 in assay [2] (oral, 400 μg/rabbit daily); 0.08 ± 0.12 in assay [2] (sc, 5 μg/rabbit daily); 0.29 ± 0.24 in assay [2] (sc, 10 μg/rabbit daily); 0.04 ± 0.06 in assay [2] (sc, 20 μg/rabbit daily). Moreover, the “McPhail Index (0-4) (X ± S.D.)” value in assay [2] (sc, 100 μg/rabbit daily) is listed as 0.13 ± 0.13; in assay [2] (sc, 200 μg/rabbit daily), 0.58 ± 0.16; in assay [2] (sc, 400 μg/rabbit daily), 0.33 ± 0.06. Besides, the “progestational response, in words” value in assay [2] (sc 5, 10, 20, 100, 200, 400 and oral 100, 200, 400 μg/rabbit/day) was “inactive at all doses examined”.

`C=C[C@]1(C(C)=O)CC[C@H]2[C@@H]3CC[C@H]4CC(=O)CC[C@]4(C)[C@H]3CC[C@@]21C` [5α-Dihydro-17α-vinylprogesterone]: the RBA in assay [1] (setting [4]) is reported as 47%; in assay [1] (setting [5]), 51%.

For `C#C[C@@]1(C(C)=O)CC[C@H]2[C@@H]3C[C@H](C)C4=CC(=O)CC[C@]4(C)[C@H]3CC[C@@]21C` [6α-Methyl-17α-acetylpregn-4-ene-20-yn-3-one], the RBA in assay [1] (setting [6]) is recorded as 5%; in assay [1] (setting [7]), 6%.

On to `C#C[C@]1(C(C)=O)CC[C@H]2[C@@H]3C[C@H](C)C4=CC(=O)CC[C@]4(C)[C@H]3CC[C@@]21C` [6α-Methyl-17α-ethynylprogesterone, 17α-Ethynyl-6α-methylprogesterone], for which the RBA in assay [1] (setting [6]) stood at 63%; in assay [1] (setting [7]), 67%; in assay [1] (Assay 6, 16-18 hour incubation, progesterone = 100) it was 91%. Further, in assay [2] (both given orally), the “potency relative to 6α-methyl-17-acetoxyprogesterone (Provera), in words” value was “at least as twice as potent”. Besides, the “progestational potency relative to subcutaneous progesterone, in words” value in assay [2] (compound given orally, progesterone sc) was “four times more potent than progesterone administered subcutaneously”. For the same compound, the “Uterine Weight (X ± S.D.)” value was 1.28 ± 0.37 g in assay [2] (oral, 10 μg/rabbit daily); 2.43 ± 0.41 g in assay [2] (oral, 25 μg/rabbit daily); 3.21 ± 0.79 g in assay [2] (oral, 50 μg/rabbit daily); 3.28 ± 0.35 g in assay [2] (oral, 100 μg/rabbit daily); 1.31 ± 0.20 g in assay [2] (sc, 2.5 μg/rabbit daily); 1.84 ± 0.48 g in assay [2] (sc, 5 μg/rabbit daily). Besides, the “Uterine Weight (X ± S.D.)” value in assay [2] (sc, 10 μg/rabbit daily) is 3.68 ± 0.31 g; in assay [2] (sc, 20 μg/rabbit daily) it was 3.69 ± 0.62 g. Moreover, the “McPhail Index (0-4) (X ± S.D.)” value in assay [2] (oral, 10 μg/rabbit daily) worked out at 0.67 ± 0.42; in assay [2] (oral, 25 μg/rabbit daily), 2.67 ± 1.00; in assay [2] (oral, 50 μg/rabbit daily) it was 3.92 ± 0.12; in assay [2] (oral, 100 μg/rabbit daily), 4.00 ± 0.00; in assay [2] (sc, 2.5 μg/rabbit daily) it was 0.21 ± 0.06; in assay [2] (sc, 5 μg/rabbit daily), 1.29 ± 1.40. The “McPhail Index (0-4) (X ± S.D.)” value is on record as 3.92 ± 0.12 in assay [2] (sc, 10 μg/rabbit daily) and 4.00 ± 0.00 in assay [2] (sc, 20 μg/rabbit daily).

In the case of `CC(=O)[C@H]1CC[C@H]2[C@@H]3C[C@H](C)C4=CC(=O)CC[C@]4(C)[C@H]3CC[C@]12C` [6α-Methylprogesterone, reference compound], in assay [1] (setting [6]), the RBA came to 57%.

Consider `C#C[C@]1(C(C)=O)CC[C@H]2[C@@H]3CC[C@H]4CC(=O)CC[C@@H]4[C@H]3CC[C@@]21C` [17α-Ethynyl-19-nor-5α-pregnane-3,20-dione], for which the values for the RBA in assay [1] (setting [6]) and in assay [1] (setting [7]) were 67% and 66%, respectively.

Consider `C[C@]12CC[C@H]3[C@@H](CCC4=CC(=O)CC[C@@]43C)[C@@H]1CC[C@@H]2O` [Testosterone], for which, in assay [3] (25 μg/rat daily), the “Levator Ani weight (X ± S.D.)” value was 36 ± 4 mg, the “Seminal Vesicles weight (X ± S.D.)” value is 23 ± 12 mg and the “Ventral Prostate weight (X ± S.D.)” value is 18 + 5 mg. Besides, in assay [3] (100 μg/rat daily), the “Levator Ani weight (X ± S.D.)” value is 53 ± 6 mg, the “Seminal Vesicles weight (X ± S.D.)” value was 66 ± 6 mg and the “Ventral Prostate weight (X ± S.D.)” value is reported as 35 ± 5 mg. Moreover, in assay [3] (400 μg/rat daily), the “Levator Ani weight (X ± S.D.)” value is given as 63 ± 14 mg, the “Seminal Vesicles weight (X ± S.D.)” value was 163 ± 43 mg and the “Ventral Prostate weight (X ± S.D.)” value was 70 ± 22 mg.
